Reference: patent US6344468B1, “Substituted isoindolones and their use as cyclic GMP modulators in medicaments” (Aventis Pharma Deutschland GmbH, priority 1998, dated 2002)

Molecular target: T1, soluble guanylate cyclase (sGC) (Bos taurus, UniProt P16068+P19687)
T1 construct: The sGC which was employed had been isolated from bovine lung; from tissue; host or cells: bovine lung
T1 sequence (P16068 1-619): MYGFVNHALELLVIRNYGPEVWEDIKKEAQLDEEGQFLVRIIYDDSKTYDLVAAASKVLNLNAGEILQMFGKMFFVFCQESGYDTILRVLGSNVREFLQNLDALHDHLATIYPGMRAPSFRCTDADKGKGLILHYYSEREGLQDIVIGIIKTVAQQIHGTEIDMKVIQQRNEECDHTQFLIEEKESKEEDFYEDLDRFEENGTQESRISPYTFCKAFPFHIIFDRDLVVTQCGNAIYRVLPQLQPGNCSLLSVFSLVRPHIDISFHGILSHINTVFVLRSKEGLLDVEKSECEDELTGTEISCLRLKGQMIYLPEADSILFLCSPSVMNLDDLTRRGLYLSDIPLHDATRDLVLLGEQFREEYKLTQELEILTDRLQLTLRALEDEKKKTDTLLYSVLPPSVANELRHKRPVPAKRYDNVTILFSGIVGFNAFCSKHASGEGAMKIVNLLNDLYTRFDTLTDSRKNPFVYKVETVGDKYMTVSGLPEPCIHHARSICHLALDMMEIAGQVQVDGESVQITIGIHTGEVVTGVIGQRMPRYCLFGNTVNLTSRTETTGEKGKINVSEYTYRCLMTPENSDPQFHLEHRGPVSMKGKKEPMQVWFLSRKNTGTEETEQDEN
T1 sequence (P19687 1-691): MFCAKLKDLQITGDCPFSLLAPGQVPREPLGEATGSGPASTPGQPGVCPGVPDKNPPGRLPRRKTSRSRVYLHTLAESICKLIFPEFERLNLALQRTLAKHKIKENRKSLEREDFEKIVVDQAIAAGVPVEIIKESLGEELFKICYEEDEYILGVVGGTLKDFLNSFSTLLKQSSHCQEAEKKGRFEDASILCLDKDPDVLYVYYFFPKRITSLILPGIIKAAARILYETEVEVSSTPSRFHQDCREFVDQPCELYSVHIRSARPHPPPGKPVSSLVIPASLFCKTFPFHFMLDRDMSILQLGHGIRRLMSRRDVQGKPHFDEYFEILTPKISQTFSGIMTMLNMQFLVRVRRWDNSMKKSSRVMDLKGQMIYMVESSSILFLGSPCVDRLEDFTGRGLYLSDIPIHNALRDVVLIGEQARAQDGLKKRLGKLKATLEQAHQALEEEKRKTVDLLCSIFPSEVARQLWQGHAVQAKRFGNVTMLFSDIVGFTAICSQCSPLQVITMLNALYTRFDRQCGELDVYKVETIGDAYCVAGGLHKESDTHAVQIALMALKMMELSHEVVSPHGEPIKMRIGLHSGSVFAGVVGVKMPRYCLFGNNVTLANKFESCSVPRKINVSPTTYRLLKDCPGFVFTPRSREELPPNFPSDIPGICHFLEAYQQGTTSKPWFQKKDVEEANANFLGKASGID
Test: Activation of the soluble guanylate cyclase (cGMP enzyme immunoassay)
Format: biochemical
Conditions: sGC isolated from bovine lung; concentration 50 μM; n-fold stimulation of basal enzyme activity = [cGMP]test substance/[cGMP]control
Procedure: The activation of the soluble guanylate cyclase (sGC), which catalyzes the conversion of guanosine triphosphate (GTP) into cyclic guanosine monophosphate (cGMP) and pyrophosphate, by the compounds according to the invention was quantified with the aid of an enzyme immunoassay (EIA) from Amersham. To this end, the substances to be tested were initially incubated with sGC in microtiter plates, and the amount of the cGMP formed was then determined.
The sGC which was employed had been isolated from bovine lung (see Methods in Enzymology, volume 195, p. 377). The test solutions (100 μl per well) contained 50 mM triethanolamine (TEA) buffer (pH 7.5), 3 mM MgCl2, 3 mM reduced glutathione (GSH), 0.1 mM GTP, 1 mM 3-isobutyl-1-methylxanthine (IBMX), suitably diluted enzyme solution and the substance to be tested or, in control experiments, the solvent. The substances to be tested were dissolved in dimethyl sulfoxide (DMSO) and the solution was diluted with DMSO/water, so that the final concentration of the substance to be tested in the test mixture was 50 μM. The DMSO concentration in the test mixture was 5% (v/v). The reaction was initiated by addition of the sGC. The reaction mixture was incubated at 37° C. for 15 to 20 minutes and the reaction was then stopped by ice-cooling and addition of the stop reagent (50 mM EDTA, pH 8.0). An aliquot of 50 μl was taken and used for determining the cGMP content using the acetylation protocol of the Amersham cGMP-EIA kit. The absorption of the samples was measured at 450 nm (reference wavelength 620 nm) in a microtiter plate reader. The cGMP concentration was determined using a standard curve which was obtained under the same test conditions. The activation of sGC by a test substance is reported as the n-fold stimulation of the basal enzyme activity which was found in the control experiments (using solvent instead of test substance) (calculated using the formula
n-fold stimulation=[cGMP]test substance/[cGMP]control).

SMILES	n-fold stimulation
OCc1ccc(-c2nn(Cc3ccccc3)c3ccccc23)o1 [A, 1-benzyl-3-(5-hydroxymethyl-2-furyl)-indazole, reference compound]	2-fold
COc1cccc(CCN2C(=O)c3ccccc3C2(O)c2ccc(F)cc2)c1 (stereo not shown) [Example 17, 3-(4-Fluorophenyl)-3-hydroxy-2-(2-(3-methoxyphenyl)ethyl)-2,3-dihydro-isoindol-1-one]	16-fold
COc1cccc(CCN2C(=O)c3ccccc3C2(O)c2ccncc2)c1 (stereo not shown) [Example 29, 3-Hydroxy-2-(2-(3-methoxyphenyl)ethyl)-3-(4pyridyl)-2,3-dihydroisoindol-1-one]	11.8-fold
COc1cccc(CCN2C(=O)c3c(F)c(F)c(F)c(F)c3C2(O)c2ccc(F)cc2)c1 (stereo not shown) [Example 33, 4,5,6,7-Tetrafluoro-3-(4-fluorophenyl)-3-hydroxy-2-(2-(3-methoxyphenyl)-ethyl)-2,3-dihydroisoindol-1-one]	9.5-fold
